Laboratory results: ChEMBL document CHEMBL1201862, “PubChem BioAssay data set” (2004)
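Exposure lasted 48 hours, with cells grown in 96-well plates and compounds tested at five concentrations. GI50 marks 50% less growth.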 Active and inactive are the calls of the source. Cut-off read from the data, not from the text of the source: active = GI50 up to about 1.1 µM and inactive = higher.

Key:
Assay in all cases: inhibition of tumour cell growth, NCI panel, 48 h
SF-268 = test system: SF-268
Hs-578T = test system: Hs-578T
U-251 = test system: U-251
DU-145 = test system: DU-145
SF-539 = test system: SF-539
SR = test system: SR
CCRF-CEM = test system: CCRF-CEM
HOP-92 = test system: HOP-92
OVCAR-3 = test system: OVCAR-3
ACHN = test system: ACHN
Malme-3M = test system: Malme-3M
MDA-MB-231 = test system: MDA-MB-231
KM12 = test system: KM12
OVCAR-4 = test system: OVCAR-4
SK-MEL-5 = test system: SK-MEL-5
HT-29 = test system: HT-29
NCI-H522 = test system: NCI-H522
MCF7 = test system: MCF7
NCI-H460 = test system: NCI-H460
SK-MEL-28 = test system: SK-MEL-28

SMILES	GI50 (SF-268)	GI50 (Hs-578T)	GI50 (U-251)	GI50 (DU-145)	GI50 (SF-539)	GI50 (SR)	GI50 (CCRF-CEM)	GI50 (HOP-92)	GI50 (OVCAR-3)	GI50 (ACHN)	GI50 (Malme-3M)	GI50 (MDA-MB-231)	GI50 (KM12)	GI50 (OVCAR-4)	GI50 (SK-MEL-5)	GI50 (HT-29)	GI50 (NCI-H522)	GI50 (MCF7)	GI50 (NCI-H460)	GI50 (SK-MEL-28)
CCO/C=C1\SC(=S)N(c2ccc(OCC)cc2)C1=O	> 100 µM (inactive)	39.9 µM (inactive)	48 µM (inactive)	51.4 µM (inactive)	44.9 µM (inactive)	30.2 µM (inactive)	54 µM (inactive)	71.4 µM (inactive)	> 100 µM (inactive)	> 100 µM (inactive)	85.7 µM (inactive)	> 100 µM (inactive)	50.8 µM (inactive)	57 µM (inactive)	76.7 µM (inactive)	> 100 µM (inactive)	67.3 µM (inactive)	75.5 µM (inactive)	> 100 µM (inactive)	> 100 µM (inactive)
COc1cccc2c1NC(=O)Cc1c-2[nH]c2ccccc12	> 100 µM (inactive)	87.7 µM (inactive)	> 100 µM (inactive)	> 100 µM (inactive)	> 100 µM (inactive)	> 100 µM (inactive)	> 100 µM (inactive)	> 100 µM (inactive)	> 100 µM (inactive)	> 100 µM (inactive)	> 100 µM (inactive)	> 100 µM (inactive)	46.9 µM (inactive)	98.2 µM (inactive)	41.9 µM (inactive)	47.6 µM (inactive)	49.9 µM (inactive)	88.5 µM (inactive)	35.1 µM (inactive)	30.8 µM (inactive)
CN(C)NC(=S)Nc1ccccc1Br		> 100 µM (inactive)	> 100 µM (inactive)	> 100 µM (inactive)	> 100 µM (inactive)	> 100 µM (inactive)	> 100 µM (inactive)	> 100 µM (inactive)	> 100 µM (inactive)	> 100 µM (inactive)	> 100 µM (inactive)	> 100 µM (inactive)	> 100 µM (inactive)	> 100 µM (inactive)	> 100 µM (inactive)	> 100 µM (inactive)	> 100 µM (inactive)	> 100 µM (inactive)	> 100 µM (inactive)	> 100 µM (inactive)
C/C(=N\Nc1nc2ccccc2[nH]1)c1cc2ccccc2cn1	0.0399 µM (active)	0.0612 µM (active)	0.0318 µM (active)	0.442 µM (active)	0.1 µM (active)	0.0281 µM (active)	< 0.01 µM (active)	0.0755 µM (active)		< 0.0139 µM (active)	< 0.01 µM (active)	0.0261 µM (active)	0.0741 µM (active)	0.0443 µM (active)	0.0494 µM (active)	0.0104 µM (active)	< 0.0165 µM (active)	< 0.01 µM (active)	0.0661 µM (active)	0.0853 µM (active)
COc1ccc2c3c1O[C@H]1C(O)CCC4(O)[C@@H](C2)NCC[C@]314 (stereo partly specified)	> 100 µM (inactive)	> 100 µM (inactive)	> 100 µM (inactive)	> 100 µM (inactive)	> 100 µM (inactive)	> 100 µM (inactive)	> 100 µM (inactive)	> 100 µM (inactive)	> 100 µM (inactive)	> 100 µM (inactive)	> 100 µM (inactive)	> 100 µM (inactive)	> 100 µM (inactive)	> 100 µM (inactive)	> 100 µM (inactive)	> 100 µM (inactive)	> 100 µM (inactive)	> 100 µM (inactive)		> 100 µM (inactive)
COC(=O)/C(C#N)=C1\NC(=O)CC(c2ccccc2)C1C#N (stereo unspecified)	> 100 µM (inactive)	> 100 µM (inactive)		> 100 µM (inactive)	> 100 µM (inactive)	> 100 µM (inactive)	> 100 µM (inactive)	63.5 µM (inactive)	> 100 µM (inactive)	> 100 µM (inactive)	> 100 µM (inactive)	> 100 µM (inactive)	> 100 µM (inactive)	> 100 µM (inactive)	> 100 µM (inactive)	> 100 µM (inactive)	> 100 µM (inactive)	> 100 µM (inactive)	> 100 µM (inactive)	> 100 µM (inactive)
